From ChEMBL document CHEMBL6134800, “Applications of innovative synthetic strategies in anticancer drug discovery: The driving force of new chemical reactions” (Bioorg Med Chem Lett, 2025)
Converted amounts (≈) assume the structure as drawn.

Assays:
[1] = test system: CAL-27; test: Antiproliferative activity against human CAL-27 cells assessed as reduction in cell viability incubated for 24 hrs by MTT assay; type: functional, cell-based; details: CAL-27, 24 h
[2] = test system: HepG2; test: Cytotoxicity against human HepG2 cells assessed as reduction in cell viability incubated for 24 hrs by CCK-8 assay; type: functional, cell-based; details: HepG2, 24 h
[3] = test system: MCF7; test: Antiproliferative activity against human MCF7 cells assessed as reduction in cell viability incubated for 72 hrs by MTT assay; type: functional, cell-based; details: MCF7, 72 h
[4] = test system: K562/Adr; test: Reversal of multidrug resistance in human K562/Adr cells assessed as reversal fold by measuring ratio of adriamycin IC50 to adriamycin IC50 in presence of test compound at 10 uM; type: functional
[5] = molecular target: Indoleamine 2,3-dioxygenase 1 (Homo sapiens, UniProt P14902); test: Inhibition of N-terminal His-tagged human IDO1 extracted from Escherichia coli
[6] = test system: HeLa; test: Anticancer activity against human HeLa cells assessed as reduction in cell growth; type: functional, cell-based
[7] = test system: 4T1; test: Anticancer activity against mouse 4T1 cells assessed as reduction in cell growth; type: functional, cell-based
[8] = test system: HeLa; test: Antiproliferative activity against human Hela cells by MTT assay; type: functional, cell-based
[9] = test system: HCT-116; test: Antiproliferative activity against human HCT-116 cells by MTT assay; type: functional, cell-based
[10] = test system: MCF7; test: Antiproliferative activity against human MCF7 cells assessed as reduction in cell growth; type: functional, cell-based
[11] = test system: HeLa; test: Antiproliferative activity against human HeLa cells; type: functional, cell-based
[12] = test system: HCC1806; test: Antiproliferative activity against human HCC1806 cells assessed as inhibition of cell growth at 30 uM relative to control; type: functional
[13] = test system: HeLa; test: Antiproliferative activity against human HeLa cells assessed as reduction in cell viability by MTT assay; type: functional, cell-based
[14] = test system: Candida albicans; test: Antifungal activity against Candida albicans MTCC 3020 assessed as reduction in fungal growth; type: functional
[15] = molecular target: Lysine-specific demethylase 5C (Homo sapiens, UniProt P41229); test: Inhibition of KDM5C (unknown origin)
[16] = test system: MDA-MB-231; test: Antiproliferative activity against human MDA-MB-231 cells assessed as reduction in cell viability incubated for 72 hrs by Celltiter-Glo reagent based assay; type: functional; details: MDA-MB-231, 72 h
[17] = test system: HepG2; test: Antiproliferative activity against human HepG2 cells assessed as reduction in cell viability incubated for 72 hrs by Celltiter-Glo reagent based assay; type: functional; details: HepG2, 72 h
[18] = test system: U-87 MG; test: Antiproliferative activity against human U-87 MG cells assessed as reduction in cell viability by MTT assay; type: functional, cell-based, U-87MG ATCC
[19] = test system: Mycobacterium tuberculosis; test: Antimycobacterial activity against Mycobacterium tuberculosis H37Rv assessed as bacterial growth inhibition by microplate Alamar blue assay; type: functional
[20] = test system: K562; test: Antiproliferative activity against human K562 cells assessed as reduction in cell viability incubated for 72 hrs by Celltiter-Glo reagent based assay; type: functional; details: K562, 72 h
[21] = test system: Jurkat; test: Antiproliferative activity against human Jurkat cells assessed as reduction in cell viability incubated for 72 hrs by Celltiter-Glo reagent based assay; type: functional
[22] = test system: MDA-MB-231; test: Cytotoxicity against human MDA-MB-231 cells assessed as reduction in cell viability incubated for 24 hrs by CCK-8 assay; type: functional, cell-based; details: MDA-MB-231, 24 h
[23] = test system: HCT-116; test: Antiproliferative activity against human HCT-116 cells assessed as inhibition of cell growth at 20 uM incubated for 48 hrs by MTT assay relative to control; type: functional
[24] = test system: A549; test: Antiproliferative activity against human A549 cells assessed as inhibition of cell growth at 20 uM incubated for 48 hrs by MTT assay relative to control; type: functional
[25] = test system: MDA-MB-231; test: Antiproliferative activity against human MDA-MB-231 cells by CCK8 assay; type: functional, cell-based
[26] = test system: SMMC-7721; test: Antiproliferative activity against human SMMC-7721 cells by CCK8 assay; type: functional, cell-based
[27] = test system: QGY-7703; test: Antiproliferative activity against human QGY-7703 cells by CCK8 assay; type: functional, cell-based
[28] = test system: L02; test: Antiproliferative activity against human L02 cells by CCK8 assay; type: functional, cell-based
[29] = test system: KBv200; test: Cytotoxicity against human KBv200 cells assessed as reduction in cell viability incubated for 72 hrs by SRB assay; type: functional, cell-based; details: KBv200, 72 h
[30] = test system: K562/Adr; test: Antiproliferative activity against human K562/Adr cells assessed as reduction in cell growth incubated for 72 hrs by MTT assay; type: functional, cell-based

Indoleamine 2,3-dioxygenase 1, sequence (P14902 whole entry): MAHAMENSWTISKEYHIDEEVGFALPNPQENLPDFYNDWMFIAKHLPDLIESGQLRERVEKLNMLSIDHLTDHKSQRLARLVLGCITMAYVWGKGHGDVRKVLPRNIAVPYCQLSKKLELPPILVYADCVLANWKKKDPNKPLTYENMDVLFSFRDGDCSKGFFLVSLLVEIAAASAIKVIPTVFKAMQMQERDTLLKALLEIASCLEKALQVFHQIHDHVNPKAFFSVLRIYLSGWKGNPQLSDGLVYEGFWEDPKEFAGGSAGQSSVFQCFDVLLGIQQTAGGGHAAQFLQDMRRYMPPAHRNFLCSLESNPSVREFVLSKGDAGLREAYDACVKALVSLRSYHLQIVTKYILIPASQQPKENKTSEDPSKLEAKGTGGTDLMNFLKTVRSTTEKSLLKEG
Lysine-specific demethylase 5C, sequence (P41229 whole entry): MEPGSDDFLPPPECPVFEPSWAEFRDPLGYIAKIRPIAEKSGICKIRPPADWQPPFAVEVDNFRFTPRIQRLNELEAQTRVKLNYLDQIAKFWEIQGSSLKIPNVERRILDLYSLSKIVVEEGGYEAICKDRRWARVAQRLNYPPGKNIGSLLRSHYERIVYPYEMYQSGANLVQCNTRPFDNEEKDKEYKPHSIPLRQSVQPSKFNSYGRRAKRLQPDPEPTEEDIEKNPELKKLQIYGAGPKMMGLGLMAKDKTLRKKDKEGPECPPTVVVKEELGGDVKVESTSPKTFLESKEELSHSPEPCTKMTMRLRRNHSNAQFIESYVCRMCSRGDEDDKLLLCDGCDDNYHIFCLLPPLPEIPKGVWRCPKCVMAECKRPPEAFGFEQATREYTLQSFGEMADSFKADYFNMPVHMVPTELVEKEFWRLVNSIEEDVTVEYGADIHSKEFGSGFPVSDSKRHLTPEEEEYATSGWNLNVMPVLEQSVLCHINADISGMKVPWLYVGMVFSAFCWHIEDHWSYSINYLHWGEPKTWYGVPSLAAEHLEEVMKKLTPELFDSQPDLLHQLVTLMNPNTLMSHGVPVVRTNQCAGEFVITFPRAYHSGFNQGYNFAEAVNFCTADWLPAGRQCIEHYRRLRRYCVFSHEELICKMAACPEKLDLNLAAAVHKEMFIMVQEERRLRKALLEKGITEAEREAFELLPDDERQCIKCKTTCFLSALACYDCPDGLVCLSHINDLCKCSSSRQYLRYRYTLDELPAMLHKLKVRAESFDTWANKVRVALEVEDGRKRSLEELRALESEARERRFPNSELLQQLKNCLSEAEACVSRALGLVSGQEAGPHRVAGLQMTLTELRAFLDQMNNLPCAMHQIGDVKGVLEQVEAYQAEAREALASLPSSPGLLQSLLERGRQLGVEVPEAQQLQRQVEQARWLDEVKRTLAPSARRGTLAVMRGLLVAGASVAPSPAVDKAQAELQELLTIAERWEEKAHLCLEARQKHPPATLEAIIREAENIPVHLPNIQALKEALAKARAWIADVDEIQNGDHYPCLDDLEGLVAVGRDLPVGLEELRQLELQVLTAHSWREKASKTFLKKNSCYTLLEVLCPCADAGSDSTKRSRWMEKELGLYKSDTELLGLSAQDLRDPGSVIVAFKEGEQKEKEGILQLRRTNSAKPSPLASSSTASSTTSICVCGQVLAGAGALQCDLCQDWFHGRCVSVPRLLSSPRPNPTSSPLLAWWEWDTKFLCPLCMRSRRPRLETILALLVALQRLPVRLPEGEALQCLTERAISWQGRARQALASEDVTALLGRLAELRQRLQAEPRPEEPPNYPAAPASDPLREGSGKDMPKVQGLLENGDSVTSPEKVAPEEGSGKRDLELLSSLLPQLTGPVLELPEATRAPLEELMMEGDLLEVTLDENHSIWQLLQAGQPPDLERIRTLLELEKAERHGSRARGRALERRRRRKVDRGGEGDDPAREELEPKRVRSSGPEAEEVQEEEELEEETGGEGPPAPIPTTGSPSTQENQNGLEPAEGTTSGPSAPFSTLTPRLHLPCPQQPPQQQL

## O=C1NC(/C=C2/C(c3ccccc3)=C(c3ccccc3)c3ccccc32)=NC2c3ccccc3OC12 (stereo not drawn)
[1]
  IC50: 8.79 µM

## FC(F)(F)C1(Nc2ccccc2)Cc2ccsc2-c2nc3ccccc3n21 (stereo not drawn)
[2]
  IC50: 9.6 µM

## C[Si](C)(C)c1ccc(C(c2c[nH]c3ccccc23)c2c[nH]c3ccccc23)cc1
[3]
  IC50: 6.71 µM

## CCOc1cc(CC(=O)N[C@@H](CC(C)C)c2ccccc2N2CCCCC2)cc2c1C(=O)N[C@@H](C)C(=O)N[C@@H](C(C)C)C(=O)OC/C(c1ccccc1)=C\C2
[4]
  fold change (FC): 176.3

## Cc1ccccc1C(c1c[nH]c2ccccc12)c1c[nH]c2ccccc12
[3]
  IC50: 5.69 µM

## O=C1c2ccccc2-n2c1c(-c1ccc(Cl)cc1Br)c(S(=O)(=O)c1ccccc1)c2-c1ccccc1
[5]
  IC50: 0.0823 µM

## Cc1ccc2c(c1)C(=O)OC1(C)CCCCN21 (stereo not drawn)
[6]
  IC50: 25.1 µg/mL (≈ 109 µM)
[7]
  IC50: 10.1 µg/mL (≈ 43.8 µM)

## CCOc1cccc(-c2ccc3c(c2)c2ccccc2n3C)c1C(=O)Nc1cccc2cccnc12
[8]
  IC50: 9.6 µM
[9]
  IC50: 15.2 µM

## CCOC(=O)C1=C(Nc2ccc(OC)cc2)C[C@H](c2ccc(Cl)cc2)N(c2ccc(OC)cc2)[C@H]1c1ccc(Cl)cc1
[10]
  IC50: 34.2 µg/mL (≈ 56.6 µM)

## Cc1cccc2c1C(=O)N1CCN(c3ccccc3)C1(C(F)(F)F)C2 (stereo not drawn)
[11]
  IC50: 1.43 µM

## CC[C@H](C)[C@@H]1NC(=O)[C@H](Cc2ccccc2)NC(=O)CC[C@@H](C(=O)OC)NC(=O)COC(=O)/C=C/c2cccc3c(c[nH]c23)C[C@@H](C(=O)OCc2ccccc2)NC1=O
[12]
  inhibition at 30 µM: 99%

## COC(=O)[C@@H]1Cc2c[nH]c3c(cccc23)/C=C/C(=O)OCCCC(=O)N[C@@H](CC(C)C)C(=O)N2CCC[C@H]2C(=O)N[C@@H](Cc2ccccc2)C(=O)N1
[12]
  inhibition at 30 µM: 97%

## COC(=O)[C@H](CC(C)C)NC(=O)[C@H](Cc1ccccc1C1=CC(=O)C=CC1=O)NC(=O)[C@@H](NC(=O)OC(C)(C)C)C(C)(C)C
[13]
  IC50: 40 µM

## CC12CCCCN1c1ccc(Br)cc1C(=O)O2 (stereo not drawn)
[14]
  MIC: 12.5 µg/mL (≈ 42.2 µM)

## CCCCCCN(C)CCn1cc(-c2cccc(C(=O)O)c2)nn1
[15]
  IC50: 3.01 µM

## COc1ccc(-c2c(C3(O)C=CC(=O)C=C3)[nH]c(=O)c3c2c2ccccc2n3Cc2ccccc2)cc1
[16]
  IC50: 0.66 µM
[17]
  IC50: 1.39 µM

## COC(=O)[C@@H](NC(=O)[C@H](CC(C)C)NC(=O)[C@H](Cc1ccccc1C1=CC(=O)C=CC1=O)NC(=O)[C@@H](NC(=O)OC(C)(C)C)C(C)(C)C)C(C)C
[18]
  IC50: 32 µM

## CCOC(=O)C1=C(Nc2ccc(Cl)cc2)C[C@H](c2ccc(OC)cc2)N(c2ccc(Cl)cc2)[C@H]1c1ccc(OC)cc1
[19]
  MIC: 12.5 µg/mL

## O=C1C=CC2(O)c3c(nc4c(c3-c3ccccc3)c3ccccc3n4Cc3ccccc3)OC2C1 (stereo not drawn)
[20]
  IC50: 2.1 µM
[21]
  IC50: 0.9 µM

## COc1ccc2c(c1)CC(Nc1ccccc1)(C(F)(F)F)n1c-2nc2ccccc21 (stereo not drawn)
[22]
  IC50: 1.3 µM

## O=C(Nc1cccc2cccnc12)c1ccccc1-c1ccc2c(c1)c1ccccc1n2-c1ccccc1
[8]
  IC50: 37.1 µM

## Cc1ccccc1NC1(C(F)(F)F)Cc2ccccc2C(=O)N1CCO (stereo not drawn)
[11]
  IC50: 1.13 µM

## O=c1[nH]c(/C=C2/C(c3ccccc3)=C(c3ccccc3)c3cc(C(F)(F)F)ccc32)nc2ccccc12
[1]
  IC50: 9.41 µM

## COc1ccc(-c2c(-c3cc(OC)c(OC)c(OC)c3)cc(-c3cc(OC)c(OC)c(OC)c3)oc2=O)cc1OC
[23]
  inhibition at 20 µM: 89.4%
[24]
  inhibition at 20 µM: 82.9%

## COC(=O)[C@]1(C)CC[C@]2(C)CC[C@]3(C)C4=CC=C5C(=CC(=O)C(O)=C5C)[C@]4(C)CC[C@@]3(C)[C@@H]2C1 [PRISTIMERIN]
[25]
  IC50: 1.01 µM
[26]
  IC50: 1.97 µM
[27]
  IC50: 2.34 µM
[28]
  IC50: 3.6 µM

## CCC1=C[C@@H]2CN(C1)Cc1c([nH]c3ccccc13)[C@@](C(=O)OC)(c1cc3c(cc1OC)N(C)[C@H]1[C@@](O)(C(=O)OC)[C@H](OC(C)=O)[C@]4(CC)C=CCN5CC[C@]31[C@@H]54)C2 [VINORELBINE]
[29]
  IC50: 0.434 µM
[30]
  IC50: 0.558 µM

## COC(=O)[C@]1(C)CC[C@]2(C)CC[C@]3(C)C4=CC=C5C(=CC(=O)C(OC(=O)CCCc6cn(CCCO[C@@H]7O[C@H](CO)[C@@H](O)[C@H](O)[C@H]7O)nn6)=C5C)[C@]4(C)CC[C@@]3(C)[C@@H]2C1
[26]
  IC50: 2.78 µM
[27]
  IC50: 5.56 µM
[28]
  IC50: 4.61 µM
